Common to all, as to assay type: biochemical
In experiment [1] the target is T1, human JAK3 (a.a. 781-1124) (Homo sapiens, UniProt P52333).
T1 construct: JAK3 (a.a. 781-1124); His tag (N); made in house; host or cells: insect cells (baculovirus)
As to the kind of experiment: In vitro JAK kinase assay (HTRF, phosphorylation of a biotinylated peptide), JAK3. Conditions: method AA1 (3 μM ATP) or AA2 (1000 μM ATP), not stated per value. Put shortly: (§1)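 Phosphorylation of a biotinylated peptide by the JAK kinase domain, detected by HTRF with Eu-Py20 and SA-APC. ATP was 90 μM for JAK1, 30 μM for JAK2 and 3 μM for JAK3. Reactions ran 1 h at room temperature and were stopped with EDTA, followed by 40 min antibody binding.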

Experiment [2] has as its target T2, human JAK2 (a.a. 828-1132) (Homo sapiens, UniProt O60674).
T2 construct: JAK2 (a.a. 828-1132); His tag (N); made in house; host or cells: insect cells (baculovirus)
As to the kind of experiment: In vitro JAK kinase assay (HTRF, phosphorylation of a biotinylated peptide), JAK2. To be noted: method AA1 (30 μM ATP) or AA2 (1000 μM ATP), not stated per value. Put shortly: as §1

In experiment [3] the target is T3, human JAK1 (a.a. 837-1142) (Homo sapiens, UniProt P23458).
T3 construct: human JAK1 (a.a. 837-1142); His tag (N); made in house; host or cells: insect cells (baculovirus)
T3 sequence (P23458 849-1154): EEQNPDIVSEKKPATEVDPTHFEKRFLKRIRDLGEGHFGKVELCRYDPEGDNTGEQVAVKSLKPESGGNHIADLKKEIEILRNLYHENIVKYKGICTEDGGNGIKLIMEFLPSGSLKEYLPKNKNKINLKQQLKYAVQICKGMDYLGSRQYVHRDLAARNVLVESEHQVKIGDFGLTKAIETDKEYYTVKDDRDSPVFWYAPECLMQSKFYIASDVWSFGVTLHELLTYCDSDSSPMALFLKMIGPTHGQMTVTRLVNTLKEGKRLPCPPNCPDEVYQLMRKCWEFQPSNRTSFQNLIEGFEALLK
As to the kind of experiment: In vitro JAK kinase assay (HTRF, phosphorylation of a biotinylated peptide), JAK1. To be noted: method AA1 (90 μM ATP) or AA2 (1000 μM ATP), not stated per value; read-out: JAK1 IC50. Put shortly: as §1

Another experiment has as its target TYK2 (Homo sapiens, UniProt P29597). As to the kind of experiment: TYK2 kinase inhibition (Table A1).
Experiment [4] addresses T4, Recombinant Human Anaplastic Lymphoma Kinase (Homo sapiens, UniProt Q9UM73).
T4 construct: purchased Invitrogen, Carlsbad, Calif
As to the kind of experiment: ALK HTRF kinase assay. Conditions: compound at 500 nM or 1 mM; 90 μM ATP. Put shortly:
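TR-FRET read-out (Eu anti-pTyr antibody + streptavidin-APC) of biotin-peptide phosphorylation by recombinant human enzyme; IC50 by sigmoidal fit with top/bottom baselines and Hill slope.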

Where a name gives a salt, the structure may show the parent alone.

T4 sequence (Q9UM73 19-1620): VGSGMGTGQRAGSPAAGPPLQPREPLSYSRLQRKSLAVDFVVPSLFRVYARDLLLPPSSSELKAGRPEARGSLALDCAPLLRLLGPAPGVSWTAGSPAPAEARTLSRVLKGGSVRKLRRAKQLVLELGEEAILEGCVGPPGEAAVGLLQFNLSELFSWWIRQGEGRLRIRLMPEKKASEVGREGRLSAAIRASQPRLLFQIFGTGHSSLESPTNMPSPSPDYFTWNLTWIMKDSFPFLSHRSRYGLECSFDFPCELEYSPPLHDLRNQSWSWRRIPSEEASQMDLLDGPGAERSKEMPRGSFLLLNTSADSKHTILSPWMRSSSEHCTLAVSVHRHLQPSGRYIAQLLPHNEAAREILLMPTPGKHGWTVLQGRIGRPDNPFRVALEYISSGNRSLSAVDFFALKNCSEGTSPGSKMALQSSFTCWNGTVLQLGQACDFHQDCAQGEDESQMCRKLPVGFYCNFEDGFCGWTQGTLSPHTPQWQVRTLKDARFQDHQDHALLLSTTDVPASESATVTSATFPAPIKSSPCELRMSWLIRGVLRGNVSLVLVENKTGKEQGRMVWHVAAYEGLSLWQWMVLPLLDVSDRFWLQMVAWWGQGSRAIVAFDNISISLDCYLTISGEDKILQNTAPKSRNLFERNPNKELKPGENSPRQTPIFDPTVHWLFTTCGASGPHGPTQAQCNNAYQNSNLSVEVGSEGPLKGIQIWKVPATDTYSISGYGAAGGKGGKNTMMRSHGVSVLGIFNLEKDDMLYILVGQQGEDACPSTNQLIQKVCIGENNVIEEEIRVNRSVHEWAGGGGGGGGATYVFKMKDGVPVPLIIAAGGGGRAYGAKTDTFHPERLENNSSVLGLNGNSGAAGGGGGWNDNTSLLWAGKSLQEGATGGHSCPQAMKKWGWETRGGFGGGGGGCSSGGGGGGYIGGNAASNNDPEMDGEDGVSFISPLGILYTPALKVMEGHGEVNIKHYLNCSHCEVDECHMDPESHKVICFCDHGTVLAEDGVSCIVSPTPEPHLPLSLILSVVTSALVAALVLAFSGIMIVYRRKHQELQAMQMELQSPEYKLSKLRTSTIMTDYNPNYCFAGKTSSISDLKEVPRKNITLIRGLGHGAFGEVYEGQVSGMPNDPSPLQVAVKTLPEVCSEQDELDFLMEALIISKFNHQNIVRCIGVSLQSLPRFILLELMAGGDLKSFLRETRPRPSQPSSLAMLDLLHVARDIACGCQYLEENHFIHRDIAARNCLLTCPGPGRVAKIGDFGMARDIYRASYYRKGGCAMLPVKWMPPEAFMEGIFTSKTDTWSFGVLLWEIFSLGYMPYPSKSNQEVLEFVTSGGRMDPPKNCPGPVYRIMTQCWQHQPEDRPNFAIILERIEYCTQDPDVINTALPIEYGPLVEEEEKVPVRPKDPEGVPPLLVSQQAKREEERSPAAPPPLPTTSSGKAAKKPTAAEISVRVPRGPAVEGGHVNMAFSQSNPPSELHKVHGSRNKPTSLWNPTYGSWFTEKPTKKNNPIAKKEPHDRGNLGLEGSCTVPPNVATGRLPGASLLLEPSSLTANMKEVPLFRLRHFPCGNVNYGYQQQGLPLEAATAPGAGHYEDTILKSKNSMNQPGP
T2 sequence (O60674 828-1132): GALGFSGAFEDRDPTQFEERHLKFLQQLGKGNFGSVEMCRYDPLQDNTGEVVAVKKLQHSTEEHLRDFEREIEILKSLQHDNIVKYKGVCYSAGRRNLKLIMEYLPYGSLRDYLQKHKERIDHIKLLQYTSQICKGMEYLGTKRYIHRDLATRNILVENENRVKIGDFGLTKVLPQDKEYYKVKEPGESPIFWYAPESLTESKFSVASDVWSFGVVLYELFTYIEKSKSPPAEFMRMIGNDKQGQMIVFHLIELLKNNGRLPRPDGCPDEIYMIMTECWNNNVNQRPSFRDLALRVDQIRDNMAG
T1 sequence (P52333 781-1124): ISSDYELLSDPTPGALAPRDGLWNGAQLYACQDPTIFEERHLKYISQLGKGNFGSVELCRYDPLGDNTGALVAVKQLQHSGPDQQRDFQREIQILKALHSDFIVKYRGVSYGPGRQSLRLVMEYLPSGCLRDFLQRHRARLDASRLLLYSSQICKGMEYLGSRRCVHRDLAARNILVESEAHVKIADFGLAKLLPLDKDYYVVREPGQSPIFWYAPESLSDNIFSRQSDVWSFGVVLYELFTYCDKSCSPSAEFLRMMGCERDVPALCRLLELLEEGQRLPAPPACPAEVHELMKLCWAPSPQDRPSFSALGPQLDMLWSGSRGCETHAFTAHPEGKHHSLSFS
Sequence of TYK2 (P29597 whole entry): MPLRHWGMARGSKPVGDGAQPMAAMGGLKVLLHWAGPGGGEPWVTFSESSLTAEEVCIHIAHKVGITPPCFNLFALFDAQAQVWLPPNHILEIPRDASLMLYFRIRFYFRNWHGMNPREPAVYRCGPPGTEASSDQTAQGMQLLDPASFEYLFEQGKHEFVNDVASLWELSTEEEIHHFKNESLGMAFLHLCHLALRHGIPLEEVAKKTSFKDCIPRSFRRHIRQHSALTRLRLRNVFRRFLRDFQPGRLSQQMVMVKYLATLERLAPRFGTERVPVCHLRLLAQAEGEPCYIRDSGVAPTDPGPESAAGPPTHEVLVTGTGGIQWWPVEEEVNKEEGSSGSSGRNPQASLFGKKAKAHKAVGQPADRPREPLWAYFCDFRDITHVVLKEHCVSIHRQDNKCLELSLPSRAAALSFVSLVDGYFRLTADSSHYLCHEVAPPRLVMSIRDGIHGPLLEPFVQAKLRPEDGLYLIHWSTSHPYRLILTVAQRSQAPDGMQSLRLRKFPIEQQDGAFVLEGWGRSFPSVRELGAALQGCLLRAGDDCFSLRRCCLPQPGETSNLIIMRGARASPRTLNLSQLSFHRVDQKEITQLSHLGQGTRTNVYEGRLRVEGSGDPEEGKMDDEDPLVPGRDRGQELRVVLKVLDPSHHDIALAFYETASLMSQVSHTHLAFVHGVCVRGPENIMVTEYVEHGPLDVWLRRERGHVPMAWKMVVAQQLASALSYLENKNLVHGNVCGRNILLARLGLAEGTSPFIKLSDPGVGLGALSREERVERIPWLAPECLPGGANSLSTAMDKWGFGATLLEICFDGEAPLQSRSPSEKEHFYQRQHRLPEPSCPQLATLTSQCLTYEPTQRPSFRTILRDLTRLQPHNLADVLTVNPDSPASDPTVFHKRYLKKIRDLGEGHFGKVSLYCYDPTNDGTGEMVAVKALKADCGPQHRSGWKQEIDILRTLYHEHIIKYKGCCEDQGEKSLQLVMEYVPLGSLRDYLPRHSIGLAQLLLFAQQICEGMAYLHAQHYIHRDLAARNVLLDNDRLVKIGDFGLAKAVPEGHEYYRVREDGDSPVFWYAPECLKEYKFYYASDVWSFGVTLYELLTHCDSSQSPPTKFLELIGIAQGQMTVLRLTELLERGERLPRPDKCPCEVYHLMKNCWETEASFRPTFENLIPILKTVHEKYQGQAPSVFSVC

Regarding `Cc1cc(C(=O)N2CCCC(C(=O)Nc3ccc4cc3CCc3cccc(c3)Nc3ncc(Cl)c(n3)N4)C2)no1` (stereo not shown) [Example A121, N-[6-Chloro-2,4,8,22-tetraazatetracyclo[14.3.1.1(3,7).1(9,13)]docosa-1(20),3(22),4,6,9(21),10,12,16,18-nonaen-12-yl]-1-[(5-methylisoxazol-3-yl)carbonyl]piperidine-3-carboxamide trifluoroacetate], the IC50 in experiment [1] amounted to 11 nM; in experiment [2], 4.2 nM; in experiment [3], 14 nM; against TYK2, 14 nM. In addition, the “ALK % of inhibition at a concentration of 500 nM or 1 mM” value (shortened to “ALK % of inhibition”) in experiment [4] came to 41%.

Consider `Cc1cc(C(=O)N2CC[C@@H](C(=O)Nc3ccc4cc3CCc3cccc(c3)Nc3ncc(Cl)c(n3)N4)C2)no1` [Example A122, (3R)—N-[6-Chloro-2,4,8,22-tetraazatetracyclo[14.3.1.1(3,7).1(9,13)]docosa-1(20),3(22),4,6,9(21),10,12,16,18-nonaen-12-yl]-1-[(5-methylisoxazol-3-yl)carbonyl]pyrrolidine-4-carboxamide trifluoroacetate], for which the IC50 in experiment [1] was found to be 7.3 nM; in experiment [2], 3.9 nM; in experiment [3] it was 7.2 nM; at TYK2, 17 nM. In addition, the “ALK % of inhibition” value in experiment [4] is reported as 52%.

With `Cc1cc(C(=O)N2CCN(CC(=O)Nc3ccc4cc3CCc3cccc(c3)Nc3ncc(Cl)c(n3)N4)CC2)no1` [Example A123, N-[6-Chloro-2,4,8,22-tetraazatetracyclo[14.3.1.1(3,7).1(9,13)]docosa-1(20),3(22),4,6,9(21),10,12,16,18-nonaen-12-yl]-2-{4-[(5-methylisoxazol-3-yl)carbonyl]piperazin-1-yl}acetamide bis(trifluoroacetate)], the half-maximal inhibitory concentration (IC50) in experiment [1] was 68 nM; in experiment [2], 9.6 nM; in experiment [3], 7.2 nM; against TYK2, 8.3 nM. Further, in experiment [4], the “ALK % of inhibition” value is listed as 26%.

Take `Cc1cc(C(=O)N2CCC(CCC(=O)Nc3ccc4cc3CCc3cccc(c3)Nc3ncc(Cl)c(n3)N4)CC2)no1` [Example A124, N-[6-Chloro-2,4,8,22-tetraazatetracyclo[14.3.1.1(3,7).1(9,13)]docosa-1(20),3(22),4,6,9(21),10,12,16,18-nonaen-12-yl]-3-{1-[(5-methylisoxazol-3-yl)carbonyl]piperidin-4-yl}propanamide trifluoroacetate]: the IC50 in experiment [1] was determined as 39 nM; in experiment [2], 2.5 nM; in experiment [3], 0.6 nM; against TYK2, 5.4 nM. Besides, the “ALK % of inhibition” value in experiment [4] worked out at 34%.

On to `Cc1cc(C(=O)N2CCC(CCC(=O)Nc3ccc4cc3CCc3cncc(c3)Nc3ncc(Cl)c(n3)N4)CC2)no1` [Example A125, N-[6-Chloro-2,4,8,18,22-pentaazatetracyclo[14.3.1.1(3,7).1(9,13)]docosa-1(20),3(22),4,6,9(21),10,12,16,18-nonaen-12-yl]-3-{1-[(5-methylisoxazol-3-yl)carbonyl]piperidin-4-yl}propanamide bis(trifluoroacetate)], for which the IC50 was 90 nM in experiment [1], 4.9 nM in experiment [2], 1.7 nM in experiment [3] and 5.3 nM against TYK2. The “ALK % of inhibition” value in experiment [4] came out at 25%.

Consider `CC(=O)N1CCN(CC(=O)Nc2ccc3cc2CCc2cncc(c2)Nc2ncc(Cl)c(n2)N3)CC1` [Example A127, 2-(4-Acetylpiperazin-1-yl)-N-[6-chloro-2,4,8,18,22-pentaazatetracyclo[14.3.1.1(3,7).1(9,13)]docosa-1(20),3(22),4,6,9(21),10,12,16,18-nonaen-12-yl]acetamide tris(trifluoroacetate)], for which the IC50 in experiment [1] turned out to be 350 nM; in experiment [2] it was 64 nM; in experiment [3] it was 31 nM; on TYK2, 59 nM. For the same molecule, the “ALK % of inhibition” value in experiment [4] was 15%.

`O=C(CC1CCN(C(=O)c2ccno2)CC1)Nc1ccc2cc1CCc1cncc(c1)Nc1ncc(Cl)c(n1)N2` [Example A128, N-[6-Chloro-2,4,8,18,22-pentaazatetracyclo[14.3.1.1(3,7).1(9,13)]docosa-1(20),3(22),4,6,9(21),10,12,16,18-nonaen-12-yl]-2-[1-(isoxazol-5-ylcarbonyl)piperidin-4-yl]acetamide bis(trifluoroacetate)]: the IC50 in experiment [1] was determined as 64 nM; in experiment [2] it was 4.1 nM; in experiment [3], 0.6 nM; against TYK2, 1.6 nM. For the same molecule, in experiment [4], the “ALK % of inhibition” value came out at 34%.

With `Cn1cc(C(=O)N2CCC(CC(=O)Nc3ccc4cc3CCc3cncc(c3)Nc3ncc(Cl)c(n3)N4)CC2)cn1` [Example A129, N-[6-Chloro-2,4,8,18,22-pentaazatetracyclo[14.3.1.1(3,7).1(9,13)]docosa-1(20),3(22),4,6,9(21),10,12,16,18-nonaen-12-yl]-2-{1-[(1-methyl-1H-pyrazol-4-yl)carbonyl]piperidin-4-yl}acetamide bis(trifluoroacetate)], the IC50 in experiment [1] amounted to 178 nM; in experiment [2], 17 nM; in experiment [3], 12 nM; against TYK2, 24 nM. The “ALK % of inhibition” value in experiment [4] was 32%.

With `Cn1ccc(C(=O)N2CCC(CC(=O)Nc3ccc4cc3CCc3cncc(c3)Nc3ncc(Cl)c(n3)N4)CC2)n1` [Example A130, N-[6-Chloro-2,4,8,18,22-pentaazatetracyclo[14.3.1.1(3,7).1(9,13)]docosa-1(20),3(22),4,6,9(21),10,12,16,18-nonaen-12-yl]-2-{1-[(1-methyl-1H-pyrazol-3-yl)carbonyl]piperidin-4-yl}acetamide bis(trifluoroacetate)], the IC50 in experiment [1] is 203 nM; in experiment [2], 9.2 nM; in experiment [3], 1.2 nM; against TYK2, 4.8 nM. Further, the “ALK % of inhibition” value in experiment [4] is 26%.

As for `Cc1oncc1C(=O)N1CCC(CC(=O)Nc2ccc3cc2CCc2cncc(c2)Nc2ncc(Cl)c(n2)N3)CC1` [Example A131, N-[6-Chloro-2,4,8,18,22-pentaazatetracyclo[14.3.1.1(3,7).1(9,13)]docosa-1(20),3(22),4,6,9(21),10,12,16,18-nonaen-12-yl]-2-{1-[(5-methylisoxazol-4-yl)carbonyl]piperidin-4-yl}acetamide bis(trifluoroacetate)], the IC50 in experiment [1] stood at 225 nM; in experiment [2] it was 36 nM; in experiment [3] it was 6.6 nM; at TYK2, 45 nM. For the same molecule, the “ALK % of inhibition” value in experiment [4] turned out to be 20%.

For the molecule `Cc1ncoc1C(=O)N1CCC(CC(=O)Nc2ccc3cc2CCc2cncc(c2)Nc2ncc(Cl)c(n2)N3)CC1` [Example A132, N-[6-Chloro-2,4,8,18,22-pentaazatetracyclo[14.3.1.1(3,7).1(9,13)]docosa-1(20),3(22),4,6,9(21),10,12,16,18-nonaen-12-yl]-2-{1-[(4-methyl-1,3-oxazol-5-yl)carbonyl]piperidin-4-yl}acetamide bis(trifluoroacetate)], the IC50 in experiment [1] came to 248 nM; in experiment [2], 18 nM; in experiment [3], 7.9 nM; against TYK2 it was 17 nM. Moreover, the “ALK % of inhibition” value in experiment [4] is reported as 23%.

Regarding `O=C(CC1CCN(C(=O)c2nccs2)CC1)Nc1ccc2cc1CCc1cncc(c1)Nc1ncc(Cl)c(n1)N2` [Example A133, N-[6-Chloro-2,4,8,18,22-pentaazatetracyclo[14.3.1.1(3,7).1(9,13)]docosa-1(20),3(22),4,6,9(21),10,12,16,18-nonaen-12-yl]-2-[1-(1,3-thiazol-2-ylcarbonyl)piperidin-4-yl]acetamide bis(trifluoroacetate)], the IC50 in experiment [1] amounted to 73 nM; in experiment [2] it was 11 nM; in experiment [3] it was 2.1 nM; on TYK2 it was 5.5 nM. Besides, the “ALK % of inhibition” value in experiment [4] was determined as 32%.

Turning to `Cn1cncc1C(=O)N1CCC(CC(=O)Nc2ccc3cc2CCc2cncc(c2)Nc2ncc(Cl)c(n2)N3)CC1` [Example A134, N-[6-Chloro-2,4,8,18,22-pentaazatetracyclo[14.3.1.1(3,7).1(9,13)]docosa-1(20),3(22),4,6,9(21),10,12,16,18-nonaen-12-yl]-2-{1-[(1-methyl-1H-imidazol-5yl)carbonyl]piperidin-4-yl}acetamide bis(trifluoroacetate)], the IC50 in experiment [1] is 226 nM; in experiment [2], 18 nM; in experiment [3], 6.2 nM; against TYK2, 25 nM. The “ALK % of inhibition” value in experiment [4] is on record as 30%.

On to `O=C(CC1CCN(C(=O)c2ccon2)CC1)Nc1ccc2cc1CCc1cncc(c1)Nc1ncc(Cl)c(n1)N2` [Example A135, N-[6-Chloro-2,4,8,18,22-pentaazatetracyclo[14.3.1.1(3,7).1(9,13)]docosa-1(20),3(22),4,6,9(21),10,12,16,18-nonaen-12-yl]-2-[1-(isoxazol-3-ylcarbonyl)piperidin-4-yl]acetamide bis(trifluoroacetate)], for which the IC50 in experiment [1] turned out to be 79 nM; in experiment [2], 2.3 nM; in experiment [3], 0.4 nM; against TYK2, 0.9 nM. For the same molecule, the “ALK % of inhibition” value in experiment [4] turned out to be 30%.

Values taken from patent US8871753B2, “Macrocyclic compounds and their use as kinase inhibitors” (Incyte Corporation, priority 2008, dated 2014).
